Patent US11129822B2 (priority 2016, dated 2021)

What was measured:
Sprague Dawley rats [1] = conditions: rat, in vivo
Sprague Dawley rats [2] = conditions: rat, in vivo; cited from earlier work

CN(C)C(=O)Oc1ccc[n+](C)c1 [pyridostigimine]
side effects in treated rats (Sprague Dawley rats [1]): no side effects | pyridostigmine-induced signs of toxicity (Sprague Dawley rats [2]): ocular discharge, nasal discharge, hypoactivity, prostration, ataxia, diarrhea, hunched posture, thin appearance and death
